Patent US9932300B2, “N,N′-diarylurea compounds and N,N′-diarylthiourea compounds as inhibitors of translation initiation” (President and Fellows of Harvard College, priority 2009, dated 2018)

System: eIF2-GTP-Met-tRNAi ternary complex
Test: Ternary complex assay (dual luciferase, firefly/renilla ratio) in stable KLN-tTA/pBISA-DL(ATF-4) cells; HTS and hit confirmation
Type: cell-based, mouse
Design: Activity 10 uM / Activity 2.5 uM / Activity 5 uM: unit not given here
Conditions: confirmed hits of the screen (Table 5); for Activity 2.5 uM: compound at 2.5 uM; for Activity 10 uM: compound at 10 uM

## CC1=CC(=Nc2ccc(N(C)C)cc2)C=CC1=O [Compound 401162]
  Activity 2.5 uM: 0.3784
  Activity 10 uM: 7.084

## c1ccc2c(O[Si](Oc3cccc4ccccc34)(Oc3cccc4ccccc34)Oc3cccc4ccccc34)cccc2c1 [Compound 401234]
  Activity 2.5 uM: 1
  Activity 10 uM: 24.65

## CCCCCCNc1nc(N2CCOCC2)c2[nH]c(NCCCCCC)nc2n1 [Compound 401304]
  Activity 2.5 uM: 1.04
  Activity 10 uM: 43.11

## Oc1c(Cl)cc(Cl)cc1Cc1cc(Cl)cc(Cl)c1O [Compound 402193]
  Activity 2.5 uM: 0.56
  Activity 10 uM: 3.19

## Br.CCCCCCCCCCCCNCCCc1ccccc1 [Compound 402291]
  Activity 2.5 uM: 0.73
  Activity 10 uM: 4.43

## Oc1ccc(N=Nc2ccc(Cl)cc2)cc1 [Compound 402592]
  Activity 2.5 uM: 2.25
  Activity 10 uM: 3.48

## O=C(Nc1ccccc1)c1cc(Cl)ccc1O [Compound 402600]
  Activity 2.5 uM: 1.14
  Activity 10 uM: 4.82

## O=C1C(=O)c2ccccc2-c2ccccc21.O=C1C(=O)c2ccccc2-c2ccccc21.[Hg] [Compound 402785]
  Activity 2.5 uM: 50.88

## CC(C)(C)c1ccc(C(=O)C[n+]2ccc(Cl)c3ccc(Cl)cc32)cc1.[Br-] [Compound 402826]
  Activity 2.5 uM: 0.85
  Activity 10 uM: 5.42

## Cc1ccc([As]=[As]c2ccc(C)cc2N)c(N)c1.Cl (centres unmarked) [Compound 402866]
  Activity 2.5 uM: 1.66
  Activity 10 uM: 26.02

## NS(=O)(=O)c1ccc(NC(=S)Nc2ccc(S(=O)(=O)Nc3nccs3)cc2)cc1 [Compound 403440]
  Activity 2.5 uM: 1.41
  Activity 10 uM: 3.83

## COC1OC(CI)C(OC(=O)c2ccccc2)C(OC(=O)c2ccccc2)C1OC(=O)c1ccccc1 (centres unmarked) [Compound 403488]
  Activity 2.5 uM: 1.55
  Activity 10 uM: 4.41

## CCOc1ccc2c(c1)/C(=C\C=C\C1CC(C)C3CC(OCC)CCC3N1CC)CC(C)N2CC (centres unmarked) [Compound 403534]
  Activity 2.5 uM: 7.33
  Activity 10 uM: 9.9

## Cc1ccc(NC(=O)c2ccc(Cl)cc2Cl)cc1 [Compound 405522]
  Activity 2.5 uM: 2.47
  Activity 10 uM: 3.69

## CCCCN=C(C)CC(=O)CC(=O)c1ccccc1 [Compound 406018]
  Activity 2.5 uM: 1.51
  Activity 10 uM: 4.09

## Cc1ccc(C23C=CC(c4ccccc4)(C2)C2C(=O)OC(=O)C23)cc1 (centres unmarked) [Compound 406824]
  Activity 2.5 uM: 1.76
  Activity 10 uM: 4.25

## F[B-](F)(F)F.c1ccc([P+](c2ccccc2)(c2ccccc2)c2ccccc2)cc1 [Compound 407396]
  Activity 2.5 uM: 1.72
  Activity 10 uM: 4.74

## CC(=O)Oc1cc2c(c3ccc4ccccc4c13)CCc1ccccc1-2 [Compound 407658]
  Activity 2.5 uM: 1.57
  Activity 10 uM: 5.17

## O=C1C=CC(=Nc2ccc3c(c2)Cc2cc(Br)ccc2-3)O1 [Compound 408380]
  Activity 2.5 uM: 2.28
  Activity 10 uM: 4.36

## O=C1C=CC(=O)N1c1ccc2c(c1)Cc1cc(NC(=O)C(F)(F)F)ccc1-2 [Compound 408383]
  Activity 2.5 uM: 0.84
  Activity 10 uM: 10.77

## CN(C)c1ccc(/C=C/c2nccc3ccccc23)cc1 [Compound 408399]
  Activity 2.5 uM: 1.63
  Activity 10 uM: 3.42

## Cc1cc2c(C(C)C)c(O)c(O)c(C=Nc3ccccc3[N+](=O)[O-])c2c(O)c1-c1c(C)cc2c(C(C)C)c(O)c(O)c(C=Nc3ccccc3[N+](=O)[O-])c2c1O [Compound 408711]
  Activity 2.5 uM: 1.47
  Activity 10 uM: 21.88

## Cc1cc2c(C(C)C)c(O)c(O)c(C=Nc3ccc([N+](=O)[O-])cc3)c2c(O)c1-c1c(C)cc2c(C(C)C)c(O)c(O)c(C=Nc3ccc([N+](=O)[O-])cc3)c2c1O [Compound 408712]
  Activity 2.5 uM: 1.57
  Activity 10 uM: 21.65

## Nc1ccc(O)c(-c2ccccc2)c1 [Compound 409777]
  Activity 2.5 uM: 20.85
  Activity 10 uM: 5.55

## C(=N\Nc1ccc2ccccc2n1)/c1ccccn1 [Compound 527347]
  Activity 2.5 uM: 2.551
  Activity 10 uM: 5.591

## CCN(CC)C1=C/CC/C(c2ccccc2)=N/N=C\1c1ccccc1 [Compound 601076]
  Activity 2.5 uM: 2.48
  Activity 10 uM: 3.17

## Cc1ccc2occ/c(=N\Nc3ccccc3)c2c1 [Compound 601994]
  Activity 2.5 uM: 3.42
  Activity 10 uM: 5.21

## O=Cc1c(-c2ccccc2)nc2sc(-c3ccc4c(c3)OCO4)nn12 [Compound 602807]
  Activity 2.5 uM: 2.08
  Activity 10 uM: 3.12

## C=C(CN1CCCC1)C(=O)c1ccc(OC)cc1.Cl [Compound 603554]
  Activity 2.5 uM: 0.35
  Activity 10 uM: 8.45

## CC(C)(C)C1=CC(=CC=C2C=CN(CCCCCCCCCCCO)C=C2)C=C(C(C)(C)C)C1=O [Compound 603854]
  Activity 2.5 uM: 0.93
  Activity 10 uM: 4.19

## Cl.NC[CH2][Sn]([c]1ccccc1)([CH]1CCCCC1)[CH]1CCCCC1 [Compound 604861]
  Activity 2.5 uM: 0.8
  Activity 10 uM: 4.82

## Cc1c2c(c(C)c3c1C(=O)c1cc4c(cc1C3=O)OCO4)OC(C)(C)O2 [Compound 604868]
  Activity 2.5 uM: 0.86
  Activity 10 uM: 5.36

## O=C(N/N=C/c1ccccc1O)c1ccccc1.[Cu+2] [Compound 607085]
  Activity 2.5 uM: 2.21
  Activity 10 uM: 3.55

## CN(C)c1ccc(N=Nc2cccc(C(=O)[O-])c2)cc1.CN(C)c1ccc(N=Nc2cccc(C(=O)[O-])c2)cc1.NC1CCCCC1N.O=[N+]([O-])O.[Pt+4] [Compound 608144]
  Activity 2.5 uM: 3.82
  Activity 10 uM: 112.47

## C(=N\Nc1ccc2ccccc2n1)/c1ccccn1.CC(=O)[O-].CC(=O)[O-].[Zn+2] [Compound 609211]
  Activity 2.5 uM: 5.68
  Activity 10 uM: 18.74

## Cn1cc(/C=C/C(=O)c2ccccc2[N+](=O)[O-])c2ccccc21 [Compound 609810]
  Activity 2.5 uM: 2.44
  Activity 10 uM: 4.69

## O=C(N/N=C/c1ccccc1[O-])c1ccccc1O.O=C(N/N=C/c1ccccc1[O-])c1ccccc1O.[Mn+2] [Compound 610051]
  Activity 2.5 uM: 1.52
  Activity 10 uM: 9.23

## COC(=O)C1CCC(/C(C#N)=C2/CCC(C(=O)OC)[N-]2)=N1.COC(=O)C1CCC(/C(C#N)=C2/CCC(C(=O)OC)[N-]2)=N1.[Cu+2] (centres unmarked) [Compound 617738]
  Activity 2.5 uM: 1.05
  Activity 10 uM: 7.65

## CN1C/C(=C\c2ccccc2)C(=O)/C(=C/c2ccccc2)C1.Cl [Compound 618767]
  Activity 2.5 uM: 0.7
  Activity 10 uM: 6.58

## [Cl][Sn]([CH2][CH2][Sn]([Cl])([c]1ccccc1)[c]1ccccc1)([c]1ccccc1)[c]1ccccc1 [Compound 620291]
  Activity 2.5 uM: 8.39
  Activity 10 uM: 9.07

## CCC[CH2][Sn]([Cl])([CH2]CCC)[S]/C(C#N)=N/N=C/c1ccc(N(C)C)cc1 [Compound 620296]
  Activity 2.5 uM: 5.24
  Activity 10 uM: 3.13

## C[n+]1[se]nc2ccccc21.Cc1ccc(S(=O)(=O)[O-])cc1 [Compound 620852]
  Activity 2.5 uM: 4.79
  Activity 10 uM: 16.94

## Cc1c(C(=O)/C=C/c2ccccc2[N+](=O)[O-])[n+](=O)c2ccccc2n1[O-] [Compound 621482]
  Activity 2.5 uM: 1.17
  Activity 10 uM: 5.15

## Cc1cc2c(cc1C)[n+]([O-])c(-c1nc3ccccc3s1)c(N)[n+]2[O-] [Compound 621504]
  Activity 2.5 uM: 14.68
